Results from US5759573A, “Cyclodextrin liposomes encapsulating pharmacologic compounds and methods for their use” (DepoTech Corporation, priority 1995, dated 1998).

Key:
in vivo [1] = conditions: mouse, sc, 10 mg/kg
Procedure: (§4) Subcutaneous (sc) pharmacokinetic studies were done using male BDF1 mice, weighing 20-25 grams. […] At each time point, 3 animals were sacrificed.
(§5) A full thickness of the abdominal wall tissue, including the entire skin and the underlying peritoneal membrane, was then excised from the costal margin to the inguinal area and from one flank to the other. The entire tissue specimen was homogenized after addition of at least 20 ml of distilled water with a Polytron homogenizer. The homogenate was sonicated for 60 seconds at a maximum setting with a Biosonic IV probe sonicator and filtered through a YMT ultrafiltration membrane (Amicon Corp, product #4104). All the samples were kept at -20° C. until assayed by HPLC. The RSTRIP program was used to perform the curve fitting. AUC was determined by linear trapezoidal rule up to the last measured concentration and extrapolated to infinity.

in vivo [2] = conditions: mouse, ip, 10 mg/kg
Procedure: (§6) The in vivo studies were done on male BDF1 mice weighing 18-25 g. […] The Emit^R assay is a homogeneous enzyme immunoassay technique based on the competition between drug present in the sample and drug labeled with the enzyme glucose-6-phosphate dehydrogenase for antibody binding sites. The limit of sensitivity was 0.02 μM.
(§7) Five μl of the peritoneal fluid samples were collected into a glass capillary pipette and diluted into 140 μl of 0.9% NaCl solution. […] Fifty μl of methanol was added to the pellet and vortexed to break multivesicular particles. The peritoneal cavities were then washed out thoroughly with 2-3 ml of 0.9% NaCl solution thrice. All samples were kept frozen at -20° C. until assayed by HPLC. Extraction of the samples was not necessary, no internal standard was used and there were no interfering peaks. RSTRIP computer program was used to analyze pharmacokinetic data. The area under the curve was determined by linear trapezoidal rule up to the last measured concentration and extrapolated to infinity.

in vivo [3] = conditions: mouse, sc
Procedure: (§1) Five animals were in each group except for the control (given 0.9% NaCl alone), where 10 animals were used. […] Median survival time was used to calculate the "increased life span" (ILS) according to the formula: […]
(§2) The LD50 was calculated after probit transformation.

[4] = Toxicity and therapeutic index of single intraperitoneal dose; design: species or system mouse (BDF1); conditions: in vivo; mouse, single ip dose, probit transformation
Procedure: (§3) There were five mice per group and fifteen mice were used as untreated controls (given 1 ml of 0.9% NaCl solution). The result was expressed as "increased life span".
LD50 was calculated after probit transformation by PHARM/PCS program (MicroComputer Specialists, Philadelphia, Pa.). […] The therapeutic index (TI) for single IP dosage was calculated by the equation: […]

[5] = estimated from studies in vitro; read-out: minimal cytotoxic concentration; cited from earlier work
L1210 leukemia [6] = experiment: Efficacy of single subcutaneous dose in murine L1210 model (increased life span); type: in vivo, mouse (BDF1); conditions: L1210, single sc dose on Day 1, increased life span
From the text: BDF1 and DBA/2J mice were from Simonsen Laboratories, Gilroy, Calif. The L1210 leukemia was maintained by serial intraperitoneal passage in DBA/2J female mice.
as §1
where T is the median survival time of treated groups and C is the median survival time for control groups.
as §2

[7] = Intraperitoneal pharmacokinetics in BDF1 mice; conditions: mouse, 10 mg/kg ip
Procedure: as §6, §7

L1210 leukemia [8] = experiment: Efficacy of single intraperitoneal dose in murine L1210 model (increased life span); type: in vivo, mouse (BDF1); conditions: L1210, single ip dose on Day 1, increased life span
Procedure: as §3

[9] = cited from earlier work
in vivo [10] = conditions: rat
Procedure: Rats were anesthetized with ketamine HCl (90 mg/kg and acetopromazine maleate (2.2 mg/kg, injected intramuscularly) and mounted in a conventional stereotaxic frame. Using a No. 15 blade, a midline cutaneous incision approximately 1 cm in length was made from the occipital crest to just behind the ears. The muscle ligament along the occipital crest at the skull was detached with a scalpel for 4 mm on either side of the midline. Using both the sharp and blunt ends of a periosteal elevator, the muscle from the occipital bone was freed down to the atlanto-occipital membrane. A retractor was placed in the incision to draw the muscle aside and obtain a clear view of the atlanto-occipital membrane. […] The needle was withdrawn, the skin was sutured with 3-0 silk, and the animal was given 10 ml lactated Ringer'solution subcutaneously for hydration.
At appropriate time points after injection, the atlanto-occipital membrane was again exposed under anesthesia and a sample of cerebrospinal fluid ranging from 30 to 60 μl was obtained through a 19-gauge needle. […] The cerebrospinal fluid samples were then kept frozen at -20° C. until analyzed using a high-performanceliquid chromatography (HPLC) system as described below.
After cerebrospinal fluid sampling, the animals were sacrificed with an overdose of ketamine (90 mg/kg) and acetopromazine (20 mg/kg), injected intraperitoneally. Blood samples were obtained via cardiac puncture and thorough exsanguination was performed. […] The calvarium was then exposed and carefully removed with a bone rongeur. The entire content of the cranial compartment was collected by scooping out the exposed brain with a spatula and washing the cranial vault thoroughly with distilled water. The spinal compartment content was then collected separately; the spinal cord was extruded forward into the cranial vault by pushing distilled water rapidly through a 19-gauge needle inserted into the lower lumbar spinal canal at a point 2.5 cm rostral to the origin of the tail. […] The cranial compartment samples were analyzed separately from the spinal canal samples. Both tissue samples were homogenized with water using a Polytron homogenizer.
The homogenized samples of brain or spinal cord were analyzed with HPLC after extraction as described by Alkayal et al. Ther. Drug Monit. 12:191 (1990). Briefly, in a glass centrifuge tube, a 500 μl aliquot of homogenate, 100 μl of theophylline aqueous solution (internal standard, 2.0 mg/ml), 250 μl trichloroacetic acid solution (10% in water), and 250 μl glacial acetic acid were placed and mixed. […] Ethyl acetate organic phase was decanted and evaporated under nitrogen at 60° C. The extracted residue was dissolved in 200 μl of mobile phase and 100 μl of the resulting solution was injected into the HPLC.
The RSTRIP computer program (MicroMath Scientific Software, Salt Lake City, Utah) was used to perform the pharmacokinetics analysis.

[11] = Subcutaneous pharmacokinetics in BDF1 mice; conditions: mouse, 10 mg/kg sc
Procedure: as §4, §5

With `CN(Cc1cnc2nc(N)nc(N)c2n1)c1ccc(C(=O)N[C@@H](CCC(=O)O)C(=O)O)cc1` [unencapsulated methotrexate, methotrexate] as the molecule, how does the AUC(0-inf) (in vivo [1]; plasma) read?
The AUC(0-inf) was 17.3 µM·h.

What about the Cmax (in vivo [1]; plasma) of the same molecule?
Its Cmax is 17.4 ± 5.2 µM.

And the Tmax (in vivo [1]; plasma)?
Its Tmax is 15 min.

What about the half-life (in vivo [1]; plasma) of the same molecule?
Its half-life is 31.8 min.

What about the half-life (in vivo [1]; skin at injection site) of the same molecule?
The half-life was 9.6 min.

And the AUC(0-inf) (in vivo [2]; peritoneal fluid)?
The AUC(0-inf) was 233 µM·h.

What about the Cmax (in vivo [2]; peritoneal fluid) of the same molecule?
Its Cmax is 430 ± 13 µM.

And the half-life (in vivo [2]; peritoneal fluid)?
The half-life was 32.4 min.

And the AUC(0-inf) (in vivo [2]; plasma)?
The AUC(0-inf) was 11.2 µM·h.

What about the half-life (in vivo [2]; plasma) of the same molecule?
Its half-life is 54 min.

What about the LD50 (in vivo [3]) of the same molecule?
The LD50 was 2650 mg/kg.

And the LD50 [4]?
The LD50 was 2760 mg/kg.

What about the MCC [5] of the same molecule?
The MCC was 500 nM.

And the “maximum efficacy (ILS max)” value (L1210 leukemia [6])?
Its value is 183%.

What about the “Peritoneal Amount t1/2” value ([7]; total amount for MVL-CD-MTX) of the same molecule?
Its value is 27 min.

And the “Peritoneal Conc. t1/2” value ([7]; unencapsulated drug or complex, or free methotrexate after MVL-CD-MTX)?
Its value is 32.4 min.

And the “maximum efficacy (ILS max)” value (L1210 leukemia [8])?
Its value is 100%.

And the “absorption after im or sc administration (in words)” value ([9]; im or sc)?
Its value is “much more predictable and complete”.

What about the “serum concentrations after im or sc versus oral dose (in words)” value ([9]; im or sc) of the same molecule?
Its value is “higher serum concentrations than after an oral dose”.

What about the “absorption rate after oral administration (in words)” value ([9]; patients, oral) of the same molecule?
The value was “highly variable among patients and appears to be saturable”.

What about the “Amount t1/2 (total amount of drug within CNS)” value (in vivo [10]) of the same molecule?
Its value is 43 min.

What about the concentration at 4 h (in vivo [10]) of the same molecule?
Its concentration at 4 h is 0.11 ± 0.02 µM.

What about the half-life (in vivo [10]; Amount t1/2 (total amount of drug within CNS)) of the same molecule?
Its half-life is 43.2 min.

And the half-life (in vivo [10]; Conc. t1/2 α (initial half-life, CSF))?
Its half-life is 34.6 min.

What about the half-life (in vivo [10]; Conc. t1/2 β (terminal half-life, CSF)) of the same molecule?
Its half-life is 432 min.

And the “Amount t1/2 (total amount of methotrexate in skin)” value ([11]; injection site)?
The value was 9.6 min.

What about the “Conc. t1/2 (plasma half-life)” value ([11]; plasma) of the same molecule?
The value was 31.8 min.
